Laboratory results: ChEMBL document CHEMBL5385851, “Natural quinazolinones: From a treasure house to promising anticancer leads” (Eur J Med Chem, 2023)
≈ marks a conversion by molar mass, not a printed value. Blank lines part the entries; values can stand above or below the compound they belong to.

Assays:
PC-3 = experiment: Cytotoxicity against human PC-3 cells assessed as inhibition of cell growth; format: functional, cell-based
NCI-N87 [1] = experiment: Cytotoxicity against human NCI-N87 cells; format: functional, cell-based
DU-145 [2] = experiment: Growth inhibition of human DU-145 cells incubated for 24 hrs by sulforhodamine B assay; format: functional
HL-60 [3] = experiment: Cytotoxicity against human HL-60 cells assessed as reduction in cell growth incubated for 48 hrs by MTT assay; format: functional, cell-based; settings: HL-60, 48 h
NCI-N87 [4] = experiment: Cytotoxicity against human NCI-N87 cells measured after 72 hrs by Celltiter-Glo assay; format: functional, cell-based; settings: NCI-N87, 72 h
P388 [5] = experiment: Antiproliferative activity against mouse P388 cells assessed as reduction in cell proliferation incubated for 48 hrs by MTT assay; format: functional, cell-based; settings: P388, 48 h
HT-29 [6] = experiment: Antiproliferative activity against human HT-29 cells assessed as reduction in cell viability after 72 hrs by MTT assay; format: functional, cell-based; settings: HT-29, 72 h
HT-29 [7] = experiment: Cytotoxicity against human HT-29 cells assessed as cell growth inhibition by MTT assay; format: functional, cell-based
P388 [8] = experiment: Cytotoxicity against mouse P388 cells assessed as reduction in cell viability by SRB assay; format: functional; settings: read-out: ED50 (the source's name)
[9] = target: Indoleamine 2,3-dioxygenase 1 (Homo sapiens, UniProt P14902); experiment: Inhibition of IDO1 in HEK293 cells; format: cell-based
Chain of Indoleamine 2,3-dioxygenase 1 (P14902 whole entry): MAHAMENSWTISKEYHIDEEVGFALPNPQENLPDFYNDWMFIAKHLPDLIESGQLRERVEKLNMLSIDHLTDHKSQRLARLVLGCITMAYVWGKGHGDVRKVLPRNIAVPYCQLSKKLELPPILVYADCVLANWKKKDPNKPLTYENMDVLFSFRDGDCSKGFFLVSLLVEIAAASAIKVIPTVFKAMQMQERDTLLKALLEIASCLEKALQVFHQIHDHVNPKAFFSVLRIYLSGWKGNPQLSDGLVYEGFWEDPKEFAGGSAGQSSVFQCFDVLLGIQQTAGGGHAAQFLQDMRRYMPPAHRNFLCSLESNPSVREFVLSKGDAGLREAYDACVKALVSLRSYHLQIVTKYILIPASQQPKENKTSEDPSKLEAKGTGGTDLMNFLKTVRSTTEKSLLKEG

HL-60 [10] = experiment: Cytotoxicity against human HL-60 cells assessed as reduction in cell viability; format: functional, cell-based
NCI-H1650 = experiment: Antiproliferative activity against human NCI-H1650 cells assessed as cell growth inhibition incubated for 72 hrs by MTT assay; format: functional, cell-based; settings: NCI-H1650, 72 h
NCI/ADR-RES [11] = experiment: Antiproliferative activity against human MCF7ADR cells assessed as cell growth inhibition incubated for 72 hrs by MTT assay; format: functional, cell-based
MCF7 [12] = experiment: Antiproliferative activity against human MCF7 cells assessed as cell growth inhibition incubated for 72 hrs by MTT assay; format: functional, cell-based; settings: MCF7, 72 h
NCI-H1975 = experiment: Antiproliferative activity against human NCI-H1975 cells assessed as cell growth inhibition incubated for 72 hrs by MTT assay; format: functional, cell-based; settings: NCI-H1975, 72 h
OVCAR-4 = experiment: Cytotoxicity against human OVCAR-4 cells assessed as cell growth inhibition; format: functional
HL-60 [13] = experiment: Antiproliferative activity against human HL-60 cells assessed as cell growth inhibition incubated for 72 hrs by MTT assay; format: functional, cell-based; settings: HL-60, 72 h
NCI/ADR-RES [14] = experiment: Antiproliferative activity against human NCI-ADR-RES cells assessed as inhibition of cell growth measured after 48 hrs by SRB assay; format: functional, cell-based
MCF7 [15] = experiment: Cytotoxicity against human MCF7 cells assessed as reduction in cell growth incubated for 5 days by MTT assay; format: functional, cell-based; settings: MCF7, 120 h
HeLa = experiment: Cytotoxicity against human HeLa cells assessed as reduction in cell growth incubated for 48 hrs by MTT assay; format: functional, cell-based
HCT-116 [16] = experiment: Antiproliferative activity against human HCT-116 cells assessed as reduction in cell proliferation; format: functional, cell-based
MCF7 [17] = experiment: Antiproliferative activity against human MCF7 cells assessed as cell growth inhibition incubated for 48 hrs by MTT assay; format: functional, cell-based; settings: MCF7, 48 h
HUVEC = experiment: Cytotoxicity against HUVEC cells assessed as reduction in cell viability incubated for 48 hrs by MTT assay; format: functional, cell-based; settings: Homo sapiens
HT-29 [18] = experiment: Cytotoxicity against human HT-29 cells assessed as reduction in cell viability by SRB assay; format: functional, cell-based
K562 [19] = experiment: Growth inhibition of human K562 cells incubated for 48 hrs by sulforhodamine B assay; format: functional
SF-295 = experiment: Growth inhibition against human SF-295 cells incubated for 48 hrs by sulforhodamine B assay; format: functional
MCF7 [20] = experiment: Growth inhibition of human MCF7 cells incubated for 48 hrs by SRB assay; format: functional
HCT-116 [21] = experiment: Anticancer activity against human HCT-116 cells assessed as cell growth inhibition; format: functional
MDA-MB-231 = experiment: Antiproliferative activity against human MDA-MB-231 cells assessed as reduction in cell viability after 48 hrs by SRB assay; format: functional, cell-based; settings: MDA-MB-231, 48 h
U-251 [22] = experiment: Growth inhibition of human U-251 cells by sulforhodamine B assay; format: functional; settings: time 72 hrs
P388 [23] = experiment: Cytotoxicity against mouse P388 cells assessed as inhibition of cell growth incubated for 48 hrs by SRB assay; format: functional, cell-based; settings: P388, 48 h
SMMC-7721 = experiment: Anticancer activity against human SMMC-7721 cells assessed as cell growth inhibition incubated for 48 hrs by CCK8 assay; format: functional, cell-based; settings: SMMC-7721, 48 h
HT-29 [24] = experiment: Growth inhibition of human HT-29 cells by SRB assay; format: functional
DU-145 [25] = experiment: Growth inhibition of human DU-145 cells incubated for 48 hrs by sulforhodamine B assay; format: functional
NCI-N87 [26] = experiment: Growth inhibition of human NCI-N87 cells assessed as reduction in cell viability measured after 72 hrs by MTT assay; format: functional
HL-60 [27] = experiment: Growth inhibition of human HL-60 cells incubated for 4 days by WST assay; format: functional; settings: HL-60, 96 h, time 4 day
A498 = experiment: Growth inhibition of human A498 cells by SRB method; format: functional
SH-SY5Y = experiment: Cytotoxicity against human SH-SY5Y cells assessed as reduction in cell viability; format: functional, cell-based
A-431 = experiment: Anticancer activity against human A-431 cells assessed as reduction of cell viability incubated for 48 hrs by MTT assay; format: functional, cell-based; settings: A-431, 48 h
SW-620 = experiment: Growth inhibition of human SW620 cells; format: functional
DU-145 [28] = experiment: Growth inhibition of human DU-145 cells by sulforhodamine B assay; format: functional
NCI-H522 = experiment: Growth inhibition of human NCI-H522 cells; format: functional
NCI/ADR-RES [29] = experiment: Growth inhibition of human MCF7ADR cells; format: functional
U-251 [30] = experiment: Growth inhibition of human U-251 cells; format: functional
M14 = experiment: Growth inhibition of human M14 cells; format: functional
SK-N-DZ = experiment: Anticancer activity against human SK-N-DZ cells assessed as cell growth inhibition measured after 72 hrs by DAPI staining based analysis; format: functional
SK-OV-3 = experiment: Growth inhibition of human SK-OV-3 cells by sulforhodamine B assay; format: functional
[31] = Antiproliferative activity against human LA-N-1 cells assessed as cell growth inhibition; format: functional, cell-based; settings: LAN1
K562 [32] = experiment: Cytotoxicity against human K562 cells assessed reduction in cell growth incubated for 48 hrs by MTT assay; format: functional, cell-based; settings: K562, 48 h
U-937 = experiment: Cytotoxicity against human U-937 cells assessed reduction in cell growth incubated for 48 hrs by MTT assay; format: functional, cell-based; settings: U-937, 48 h

Structure (SMILES): O=c1c2ccc(O)cc2nc2c3[nH]c4ccccc4c3ccn12
IC50 (PC-3): 17.4 µM | IC50 (NCI-N87 [1]): 27.9 µM

Structure (SMILES): CO[C@@H]1c2c([nH]c3ccccc23)-c2nc3ccccc3c(=O)n2[C@H]1O
IC50 (HL-60 [3]): 7.82 µM | IC50 (NCI-N87 [4]): 22.3 µM

Structure (SMILES): COc1cccc2c(=O)n3ccc4c5ccccc5[nH]c4c3nc12
IC50 (HT-29 [7]): 27.1 µM | EC50 (P388 [8]): 12.3 µM

Structure (SMILES): CCO[C@@H]1c2c([nH]c3ccccc23)-c2nc3ccccc3c(=O)n2[C@H]1O
IC50 (HL-60 [10]): 8.31 µM

Structure (SMILES): O=c1c2cc(Cl)ccc2nc2n1CCc1c-2[nH]c2ccccc12
GI50 (OVCAR-4): 1.5 µM

Second part, led by results:

GI50 (DU-145 [2]): 0.1 µM
Structure (SMILES): C[S+]([O-])c1ccc2[nH]c3c(c2c1)CCN1C(=O)c2ccccc2NC31 (stereo not given)

IC50 (P388 [5]): 12.4 µM | IC50 (HT-29 [6]): 24.7 µM
Structure (SMILES): O=c1c2cccc(O)c2nc2n1CCc1c-2[nH]c2ccccc12

IC50 [9]: 0.0243 µM
Structure (SMILES): O=C1c2ccccc2N[C@H]2[C@H](O)C3C=C(F)C=CC3N12 (stereo not given in full)

IC50 (NCI-H1650): 4.53 µM | IC50 (MCF7 [12]): 0.3 µM | IC50 (NCI-H1975): 5.59 µM
Structure (SMILES): CN1c2ccccc2C(=O)N2CCc3c([nH]c4ccccc34)C21 (stereo not given)
IC50 (NCI/ADR-RES [11]): 0.47 µM

IC50 (HL-60 [13]): > 100 µM | IC50 (HCT-116 [16]): 51.1 µM
Structure (SMILES): O=c1c2ccccc2nc2n1Cc1cc3ccccc3nc1-2 [LUOTONIN A]
IC50 (NCI/ADR-RES [14]): 3 µM | IC50 (MCF7 [15]): 3 µM | IC50 (HeLa): 3 µM

IC50 (MCF7 [17]): 74.5 µM | GI50 (K562 [19]): 25.8 µM | GI50 (MCF7 [20]): 19.6 µM | GI50 (HCT-116 [21]): 33.9 µM | IC50 (MDA-MB-231): 118 µM | GI50 (U-251 [22]): 0.02 µM | IC50 (SMMC-7721): 18.9 µM | GI50 (HT-29 [24]): 31.6 µM | GI50 (DU-145 [25]): 31.7 µM | GI50 (HL-60 [27]): 19.8 µM
Structure (SMILES): O=c1c2ccccc2nc2n1CCc1c-2[nH]c2ccccc12 [RUTAECARPINE]
IC50 (HUVEC): 16.5 µM | IC50 (HT-29 [18]): 118 µM | GI50 (SF-295): 14.1 µM | IC50 (P388 [23]): 36.8 µM | GI50 (NCI-N87 [26]): 8.41 µM

IC50 (A-431): 9 µM | GI50 (SW-620): 5 µM | GI50 (DU-145 [28]): 0.4 µM | GI50 (NCI-H522): 15 µM | GI50 (U-251 [30]): 100 µM | IC50 (SK-N-DZ): 14 µM | GI50 (SK-OV-3): 2.5 µM
Structure (SMILES): O=C1c2ccccc2-n2c1nc1ccccc1c2=O [TRYPTANTHRIN]
GI50 (A498): 0.95 µM | IC50 (SH-SY5Y): 22 µM | GI50 (NCI/ADR-RES [29]): 30 µM | GI50 (M14): 15 µM | IC50 [31]: 15.8 µM | IC50 (K562 [32]): 6.3 µg/mL (≈ 25.4 µM) | IC50 (U-937): 3.1 µg/mL (≈ 12.5 µM)
